Results on 14 compounds are retold here after PubChem BioAssay (NCI).

Test systems include SF-295 CNS; MDA-MB-231 breast; HOP-62 NSCLC; SF-268 CNS; KM12 colon; HT29 colon; NCI-H226 lung; HL-60(TB) leukemia.
Assay in all cases: NCI anticancer screen, dose series, 48 h

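Cultured in 96-well plates, cells were exposed to test compound for 48 hours across five concentrations. GI50 is the concentration that inhibits growth by half. At the TGI there is no net growth.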

For `CCC(C)(O)c1cnc(CC(C)C)c(=O)n1O` (configuration not stated), the TGI in the assay on SF-295 CNS, with MDA-MB-231 breast, in the assay on HOP-62 NSCLC, with SF-268 CNS, in the assay on KM12 colon and with HT29 colon was more than 100 µM in each case.

For the compound `COc1cc2c(cc1O)CCN[C@]21CS[C@@H]2c3c(OC(C)=O)c(C)c4c(c3[C@H](COC1=O)N1[C@@H]2[C@H]2c3c(cc(C)c(OC)c3O)C[C@@H]([C@@H]1O)N2C)OCO4`, the GI50 in the assay with NCI-H226 lung was 0.00313 µM. Further, the TGI in the assay on NCI-H226 lung came to 0.00582 µM; with SF-295 CNS, 1.01 µM; in the assay with MDA-MB-231 breast it was 0.0199 µM; with HOP-62 NSCLC, 0.252 µM; in the assay with SF-268 CNS, 0.0486 µM; in the assay on HL-60(TB) leukemia it was 0.0114 µM. The TGI with HT29 colon came to 2.52 µM.

On to `N#CCCN1C/C(=C/c2ccc(Br)cc2)C(=O)/C(=C/c2ccc(Br)cc2)C1`, for which the GI50 is 2.95 µM with MDA-MB-231 breast, 1.66 µM with HOP-62 NSCLC, 2.55 µM with HL-60(TB) leukemia and 0.338 µM in the assay on HT29 colon. Besides, the TGI with MDA-MB-231 breast is 11.4 µM; in the assay with HOP-62 NSCLC, 3.57 µM; in the assay on HL-60(TB) leukemia, more than 100 µM; in the assay with HT29 colon, 1.24 µM.

In the case of `O=C1c2ccccc2-c2c1c1ccccc1c(=O)n2CCN1CCNCC1`, the GI50 in the assay with NCI-H226 lung is 1.06 µM; with SF-295 CNS, 0.552 µM; in the assay with MDA-MB-231 breast, 2.45 µM; with HOP-62 NSCLC it was 1.92 µM; in the assay with SF-268 CNS it was 5.83 µM; with KM12 colon, 1.24 µM. Besides, in the assay with HT29 colon, the GI50 is 1.58 µM. The TGI in the assay with NCI-H226 lung was 3.15 µM; in the assay on SF-295 CNS, 3.05 µM; in the assay on MDA-MB-231 breast, 10.7 µM; with HOP-62 NSCLC, 6.27 µM; in the assay with SF-268 CNS, 26.4 µM; with KM12 colon it was 3.47 µM. In addition, the TGI with HT29 colon stood at 8.02 µM.

Turning to `CC(C)(C)[Si](C)(C)OC1[C@@H](CNC(=O)NC(=O)CCl)O[C@@H](n2cnc3c(N)ncnc32)[C@H]1O[Si](C)(C)C(C)(C)C` (some centres not stated), the GI50 in the assay on NCI-H226 lung was 0.956 µM; in the assay with MDA-MB-231 breast it was 0.905 µM; in the assay on HOP-62 NSCLC it was 0.842 µM; in the assay with SF-268 CNS, 1.06 µM; in the assay with KM12 colon it was 0.897 µM; in the assay with HL-60(TB) leukemia, 0.893 µM. Besides, in the assay on HT29 colon, the GI50 was 0.585 µM. Besides, the TGI in the assay with NCI-H226 lung stood at 2 µM; in the assay with MDA-MB-231 breast, 1.71 µM; in the assay on HOP-62 NSCLC it was 1.69 µM; in the assay on SF-268 CNS, 2.09 µM; with KM12 colon it was 1.98 µM; in the assay on HL-60(TB) leukemia, 1.87 µM. Moreover, the TGI in the assay with HT29 colon turned out to be 1.43 µM.

For `CCCC(=O)C1=C(O)C(Cc2c(O)c(C)c(O)c(C(=O)CCC)c2O)=C(O)C(C)(C)C1=O`, the TGI in the assay with SF-295 CNS, with MDA-MB-231 breast, in the assay with HOP-62 NSCLC, with SF-268 CNS, in the assay with KM12 colon and in the assay on HT29 colon was more than 50 µM each time.

On to `COc1ccc(-c2nn(-c3cccc(Cl)c3)cc2-c2cc(-c3ccccc3)[nH]c(=O)c2C#N)cc1`, for which the GI50 was 0.969 µM with NCI-H226 lung; 1.24 µM in the assay on MDA-MB-231 breast; 1.17 µM in the assay with HOP-62 NSCLC; 2.59 µM in the assay with SF-268 CNS; more than 50 µM with KM12 colon; 21.9 µM with HL-60(TB) leukemia. Besides, the GI50 with HT29 colon was 19.5 µM. For the same compound, the TGI with NCI-H226 lung was more than 50 µM; with MDA-MB-231 breast it was 10.4 µM; with HOP-62 NSCLC, 2.87 µM; in the assay with SF-268 CNS it was more than 50 µM; in the assay on KM12 colon, more than 50 µM; in the assay with HL-60(TB) leukemia it was more than 50 µM. The TGI with HT29 colon is more than 50 µM.

Take `NCCNCC1CCNCC1`: the TGI in the assay on NCI-H226 lung, with SF-295 CNS, in the assay on MDA-MB-231 breast, in the assay with HOP-62 NSCLC, in the assay on SF-268 CNS and in the assay with KM12 colon was more than 100 µM in each case. The same compound gave a TGI in the assay with HT29 colon of more than 100 µM.

Consider `Cn1cc(-c2csc(-c3cn(CCCCN4CCCCC4)c4ccccc34)n2)c2cccnc21`, for which the GI50 in the assay on SF-295 CNS is 1.64 µM; with HOP-62 NSCLC, 1.6 µM; with SF-268 CNS, 1.71 µM; in the assay with HT29 colon it was 1.58 µM. Further, the TGI with SF-295 CNS stood at 3.06 µM; in the assay on HOP-62 NSCLC, 3.19 µM; in the assay on SF-268 CNS, 3.37 µM; with HT29 colon, 3.1 µM.

Regarding `COc1cc(/C=C\c2cc(OC)c(OC)c(OC)c2)cc(N/C=C\C(=O)c2c[nH]c3ccccc23)c1OC`, the GI50 was 7.28 µM in the assay on NCI-H226 lung; 7.94 µM in the assay on SF-295 CNS; 1.73 µM in the assay with MDA-MB-231 breast; 11.6 µM in the assay on HOP-62 NSCLC; 3.57 µM with SF-268 CNS; 3.69 µM in the assay with KM12 colon. Moreover, the GI50 in the assay on HT29 colon is 2.28 µM. The TGI in the assay with NCI-H226 lung came to 27.7 µM; in the assay on SF-295 CNS, 22.9 µM; in the assay with MDA-MB-231 breast, 4.11 µM; in the assay with HOP-62 NSCLC, 28.1 µM; in the assay on SF-268 CNS, 15.6 µM; with KM12 colon, 14.1 µM. In the assay with HT29 colon, the TGI turned out to be 5.14 µM.

With `O=C(O)c1cccc(COc2ccc([N+](=O)[O-])cc2Cl)c1`, the GI50 in the assay on SF-295 CNS was more than 100 µM; with MDA-MB-231 breast, more than 100 µM; in the assay with HOP-62 NSCLC, more than 100 µM; in the assay with SF-268 CNS it was 7.71 µM; with KM12 colon, more than 100 µM; in the assay with HL-60(TB) leukemia, 58.5 µM. The TGI was more than 100 µM in the assay with SF-295 CNS; more than 100 µM in the assay with MDA-MB-231 breast; more than 100 µM in the assay on HOP-62 NSCLC; 85.6 µM with SF-268 CNS; more than 100 µM with KM12 colon; more than 100 µM in the assay on HL-60(TB) leukemia.

Take `CCC/C=C/C=C/C1CC(O)C(O)C(=O)C1CO` (configuration not stated): the TGI with NCI-H226 lung, in the assay with SF-295 CNS, with MDA-MB-231 breast, in the assay on SF-268 CNS, with KM12 colon and with HL-60(TB) leukemia was more than 100 µM throughout. Also, the TGI in the assay with HT29 colon was more than 100 µM.

As for `CC1CC(O)C(=O)C(O[C@@H]2C[C@@H]3CC[C@@H]4[C@H](CC[C@]5(C)C(C6=CC(=O)OC6)CC[C@]45O)[C@@]3(C=O)C[C@H]2O)O1` (some centres not stated), the TGI in the assay with NCI-H226 lung was found to be 0.228 µM; in the assay with SF-295 CNS, 0.149 µM; in the assay on HOP-62 NSCLC, 0.0492 µM; in the assay with SF-268 CNS it was 0.146 µM; with KM12 colon, 0.44 µM; in the assay on HL-60(TB) leukemia it was 0.155 µM. Further, in the assay with HT29 colon, the TGI came out at 0.171 µM.

Regarding `COc1ccc(C(=O)c2cc(OC)c(OC)c(OC)c2)cc1OC`, the TGI was 4.27 µM with SF-295 CNS; more than 100 µM in the assay with MDA-MB-231 breast; more than 100 µM in the assay on HOP-62 NSCLC; more than 100 µM in the assay with SF-268 CNS; 28.9 µM in the assay with KM12 colon; 11.7 µM in the assay on HL-60(TB) leukemia. The compound further gave a TGI with HT29 colon of 9.75 µM.
